Results on 12 molecules are retold here after US9783833B2, “Biocatalytic methods to convert cyclohexane oxidation process waste streams to useful products” (INVISTA NORTH AMERICA S.A. R.L., priority 2011, dated 2017).

The subject of data set [1] is wild-type Yarrowia lipolytica. As to the kind of experiment: Chemo-stat fermentation with cell retention using NVR as carbon and energy source. To be noted: for Flux: steady state, 2% (v/v) NVR, ~215 mL/h, biomass dilution rate ~0.025 h^-1. An excerpt: The experimental set-up provided for a NVR Feed, Nutrient Feed and Base Feed (12% (v/v) NH3 (aq.)) that was filter sterilized into the fermenter via peristaltic pumps. Furthermore, a peristaltic pump provided the necessary cross-flow retentate flow rate to the hollow fibre membrane, a peristaltic pump allowed withdrawal of permeate and a peristaltic pump allowed for a biomass bleed from the fermenter.
The chemo-stat's control philosophy entailed manual feed ratio control of the NVR Feed to Nutrient Feed rates, pH control via the Base Feed, temperature control via cooling water supply to the fermenter's jacket, fixed aeration & agitation rates via the respective feedback loops, fixed cross-flow rate via the retentate pump's variable speed drive, manual level control via the permeate pump and manual dilution rate control via the bleed pump.
The initial charge minimal media was prepared (6.7 g/L yeast base without amino acids+(NH4)2SO4, 15 g/L glucose, 75 mg/L citric acid (Mr.=210 g/mol), 5.8 g/L sodium citrate (Mr.=294.1 g/mol), 10.7 g/L K2HPO4 (Mr.=174 g/mol), 5.2 g/L KH2PO4 (M=136.1 g/mol), and 2 mL/L antifoam) and the Nutrient Feed was prepared (6.7 g/L yeast base without amino acids+(NH4)2SO4, 75 mg/L citric acid (Mr.=210 g/mol), 5.8 g/L sodium citrate (Mr.=294.1 g/mol), 10.7 g/L K2HPO4 (Mr.=174 g/mol), 5.2 g/L KH2PO4 (M=136.1 g/mol), and 2 mL/L antifoam). The control parameters for the fermenter were set up (A1 and A2: 1 vvm aeration, pH 7.0, DO calibration at pH 7.0 and 1 vvm to 100% saturation, 28° C., 750 rpm initial agitation until glucose depletion, 1250 rpm final agitation after glucose depletion, manual antifoam).
The fermenter was inoculated with a 10% (v/v) inoculum from a wild-type Yarrowia lipolytica shake flask that was grown overnight from a cryopreserved stock.

The test system of the next data set is Y. lipolytica strains. Briefly: Growth of yeasts in the presence of lactones. It is filed as cell-based, Yarrowia lipolytica. Conditions: 0.1 to 1 g/L lactone; strains adapted to 3% NVR, especially Iss#137. The text has this:
FIG. 18 contains three line graphs showing the growth of selected yeasts in the presence of 0.1-1 g/L lactones (γ-butyrolactone, ε-caprolactone, and δ-valerolactone). Iss#125 is a S. cerevisiae control strain. Iss#134 is a Y. lipolytica strain isolated from plates after slow growth on 3% (v/v) NVR+YPD media. Iss#137 is a Y. lipolytica strain isolated from chemo-stat using synthetic NVR component feed.
A cell retention chemo-stat was required to avoid cell wash-out. […] HPLC analysis confirmed that NVR contains a high concentration (ca. 92 g/L) of valerolactone.

Data set [2] is described as follows: Hydrolysis of oligomers by cutinases (drop plates). Type of data set: biochemical. To be noted: expressed in E. coli or Y. lipolytica; 12 hours at 28° C. The text has this:
Cutinases from F. solani and A. oryzae were expressed in E. coli BL21 Star with His6 tags using the pET151/D-TOPO vector and the TOPO cloning system (Invitrogen) and purified on His-trap columns. The enzymes were also expressed as secreted extracellular proteins in a Y. lipolytica host strain deficient in the extracellular lipases LIP2, LIP7 & LIP8 (See, Example 7) and the supernatants concentrated 10 fold. Activity was confirmed using p-nitrophenyl butyrate as substrate, commercial lipase as a positive control and the concentrated soluble extract from E. coli transformed with the empty vector as negative control. […] (See, FIG. 26). This is further illustrated by the increase in monomeric acids, especially in the C-6 monomer components (hydroxycaproic acid, adipic acid, caproic acid) and valeric acid, released from the oligomers when cutinases (10 μl supernatant) were incubated with 4% NVR or 4% COP acid (v/v) (1 ml) overnight (See, FIGS. 27A and B).

Data set [3] is described as follows: Agar plate clearance zone assay on NVR. It is filed as biochemical. Conditions: lipases; 1% (v/v) NVR, pH = 7; 1 U/well, 24 hours. An excerpt: (§1) Screening methods for hydrolysis of oligomeric esters in NVR and COP acid with commercially available lipases and esterases were verified using commercially available caprolactonediol (CPL) polymers with a range of molecular weights. Two screening methods were used to identify candidate enzymes, including an agar plate assay where radial enzyme diffusion produces clearance zones if the oligomer in the agar is hydrolyzed, and a biotransformation assay in which the hydrolysis of the polymer to monomers was assayed by HPLC with UV detection or LC-MS to quantify the concentrations of monomers. […]
(§2) For plate assays, agar plates (1.5% agarose) containing 1-4% polycaprolactone (PCL), NVR or COP acid (v/v) were prepared with 50 mM citrate, Tris/HCl, or phosphate buffers to assay enzymes for hydrolytic activity at pH 3.5, 5, 7, or 8. […] Clearance zones were measured after 24 hours. […] FIG. 5 is a bar graph comparing the relative activity of esterases at different pHs as measured by the diameter of the clearance zone in the plate assay.

A short description of data set [4]: Agar plate clearance zone assay on COP acid. Type of data set: biochemical. To be noted: lipases; 4% (v/v) COP acid, pH = 7; 1 U/well, 24 hours.
Excerpt: as §1, §2

A short description of data set [5]: Plate assays, results summarised in words. Conditions: synthetic PCL diol, NVR and/or COP acid oligomers as named in the sentence; pH 5-8. Type of data set: biochemical. The method, then: For plate assays, agar plates (1.5% agarose) containing 1-4% polycaprolactone (PCL), NVR or COP acid (v/v) were prepared with 50 mM citrate, Tris/HCl, or phosphate buffers to assay enzymes for hydrolytic activity at pH 3.5, 5, 7, or 8. The molecular weight of PCL is 530 g/mol. Wells with a ca. 3 mm diameter were made in the plates, and enzyme added (1 U/well). Clearance zones were measured after 24 hours. Tables 3 and 4 show the results of the agar plate assay with commercial esterases and lipases, respectively, for hydrolysis of oligomers in NVR, COP acid and caprolactone polymers. […] FIG. 5 is a bar graph comparing the relative activity of esterases at different pHs as measured by the diameter of the clearance zone in the plate assay.
See, Table 3, 4 and FIG. 4.

Data set [6] is described as follows: Lactone hydrolases incubated with NVR (LC/MS). Type of data set: biochemical. Conditions: 4% v/v NVR, pH 7.0, 60 minutes. The text has this: (§3) The lactone hydrolase from Acinobacter was expressed (See, FIG. 3) as a secreted protein in Y. lipolytica with all major extracellular lipases deleted (strain JMY1212, Δlip-2,7,8,11). The secreted hydrolase was concentrated 10 fold by centrifugal filtration of the supernatant (Amicon® Ultra Ultracel® 10K). This enzyme, as well as the lactone hydrolyzing enzymes from Brevibacterium epidermidis and Euglena gracilis were also expressed in E. coli BL21 Star™ (DE3) cells as His tagged proteins using the pET151 inducible expression vector, and the enzymes were purified using HisTrap™ FF columns (GE Healthcare), and concentrated as before by centrifugal filtration to 1 ml after elution from the columns. Activity assays were performed in phosphate buffer (50 mM, pH 7.0) and ZnCl2 (75 mM) containing the substrate (valerolactone, caprolactone, NVR, or COP acid) (4% v/v). Reactions were started by adding 50 μl concentrated enzyme and incubated with shaking for 60 minutes. Reactions were terminated by the addition of 500 μl acetonitrile and analyzed by LC/MS. The buffer control contained 5% glycerol in place of enzyme. To assess hydrolysis of oligomers in COP acid, 10 μl enzyme was added to agar plates (1.5% (w/v)) containing 4% (v/v) COP acid. All experiments were performed in triplicate. […]

Data set [7] in a line: Lactone hydrolase activity assay (LC/MS). It is filed as biochemical. Conditions: 4% v/v substrate, pH 7.0, 60 minutes.
Excerpt: as §3

Consider `CCCC(=O)O` [butyric acid], for which the “steady state flux of catabolism relative to the catabolism of valeric acid” value in data set [1] (Table 6) was found to be 7%. The Flux in data set [1] was 7 % of valerate uptake. On to `O=C1CCCO1` [γ-butyrolactone], for which the Flux in data set [1] is on record as 0 % of valerate uptake. On to `O=C1CCCCO1` [δ-valerolactone], for which the “effect of lactone on growth of Y. lipolytica strains” value in the data set with Y. lipolytica strains is “inhibitory”. Take `O=C(O)CCCCCO` [6-hydroxycaproic acid]: the Flux in data set [1] is reported as 18 % of valerate uptake. The same measure, in the same setting: for `O=C(O)CCCC(=O)O` [glutaric acid] the value was 12 % of valerate uptake. With “AoC: Aspergillus oryzae cutinase (EMBL D38311.1, UniProt P52956)”, in data set [2], the “hydrolysis of oligomers in NVR and COP acid (clearance zones)” value was “able to hydrolyze oligomers in NVR and COP acid”.

As for `CCCCCC(=O)O` [caproic acid], the “steady state flux of catabolism relative to the catabolism of valeric acid” value in data set [1] (Table 6) was 42%. Further, the Flux in data set [1] was 42 % of valerate uptake. Regarding `O=C(O)CCCCC(=O)O` [adipic acid], the “steady state flux of catabolism relative to the catabolism of valeric acid” value in data set [1] (not told) was 18%. Consider `O=C(O)CCCCO` [5-hydroxyvaleric acid], for which the Flux in data set [1] was 32 % of valerate uptake.

B1: L7: Commercial lipase from Rhizomucor miehei (protein, UniProt P19515 95-363, looked up)
Lipase: SIDGGIRAATSQEINELTYYTTLSANSYCRTVIPGATWDCIHCDATEDLKIIKTWSTLIYDTNAMVARGDSEKTIYIVFRGSSSIRNWIADLTFVPVSYPPVSGTKVHKGFLDSYGEVQNELVATVLDQFKQYPSYKVAVTGHSLGGATALLCALDLYQREEGLSSSNLFLYTQGQPRVGDPAFANYVVSTGIPYRRTVNERDIVPHLPPAAFGFLHAGEEYWITDNSPETVQVCTSDLETSDCSNSIVPFTSVLDHLSYFGINTGLCT
With B1, the “Substrate Clearance Zone Diameter” value in data set [3] worked out at 1.7; in data set [4] it was 2.2. The “hydrolytic activity in plate assays (in words)” value in data set [5] is “large clearance zones”.

B2: ChnC from Brevibacterium: Lactonohydrolase, GenBank AAK73167.2, SEQ ID NO:2 (protein, listed as Brevibacterium epidermidis)
chain: MPTSPPTVSATPMTWSSRRTGRPTSASSASTSWAGPITSSPMSSRQHRRHLGVVASGLSFPNGMVITPDGKTLIVNELFGNKITAFDIGADGKLANKRDFANFGEIGDEPDVAKRIEAATIVPDGLALDAEGAVWIANTVNQNATRIAEGGQILDTVDTAPEGIFAVALGGDDGKTLFLCAAPDWDEGARSKAREGRMLATTVAVPHAGRP
B2: in data set [6], the “hydrolysis of valerolactone in NVR” value is “hydrolyzed valerolactone”.

B3: ChnC from Acinobacter: Lactone hydrolase, GenBank AAG10029.1, SEQ ID NO:1 (protein)
chain: MNSTQSNTQFLFDLYANWSRRMQENPNMTIEDFRSMFDEWHQPTLEPEEVSYKFDVVAGVEGLWIYPKDADLSKVIIYTHGGGFAVGSSASHRKLVGHLAKYLGVSAFVVDYRRSPEHVFPAQIQDVTAVYKELLQRGFTAKNMLTAGDSAGGNLAISTVLNLRNEGIELPGAVIAFSPWLDMEHKGETLISNDATDALITVDLLKGMSQMFLGEHGDPANPLANPLKANYQVFPRLYINAGSVESLVDNATRLADIAKKEGVDVTLSVVDNMQHVFPFLAGRASEADQELAKIAQWFKA
modifications: Acinetobacter sp. SE19
For B3, in data set [7], the lactone hydrolyzing activity result was “highest activity”. Also, in data set [6], the “hydrolysis of valerolactone in NVR” value is “hydrolyzed valerolactone”.
